Measurements from patent US11364229B2, “Triple combination formulations for antiemetic therapy” (LEIUTIS PHARMACEUTICALS PVT, LTD, priority 2017, dated 2022).

Test: Effect of Meglumine on solubility (stressed at 60° C. for 24 hours, filtered)
Assay type: physicochemical
Settings: Arginine+Aspartic acid buffer system
Protocol: The samples were stressed at 60° C. for 24 hours and were analyzed after filtration.

CNC[C@H](O)[C@@H](O)[C@H](O)[C@H](O)CO [meglumine]
effect on solubility of Aprepitant in the buffer system: improves the solubility of Aprepitant
